This is an account of results in patent US20130338142A1, “IMIDAZOPYRAZINE SYK INHIBITORS” (Gilead Connecticut, Inc., priority 2012, published 2013).

The target of this experiment is Syk (Homo sapiens, UniProt P43405). Briefly: High throughput Syk assay (TR-FRET, KinEASE). Particulars: Syk TR-FRET assay of Example B2; 3 μM ATP, 0.5 nM Syk. In kind it is biochemical. How it is done: The following high throughput Syk assay was performed on the compounds of Table 1 as follows.
Syk activity was measured by detecting phosphorylated peptide substrate formation using antibody against phosphorylated peptide substrate. This is a time-resolved fluorescence resonance energy transfer (TR-FRET) immunoassay, based on the KinEASE Assay (Cisbio). […] Test compounds (in DMSO) were spotted into 384 well plates using a Labcyte® Echo 550 Liquid Handling System prior to addition of Syk enzyme and peptide substrate. Reaction solutions were delivered using a Multi-Flo (Bio-Tek Instruments). The enzyme and peptide solution was incubated with compound for 60 minutes at room temp before the reaction was initiated by the addition of ATP. […] The europium donor was excited using a 340-nm excitation filter with a 30-nm band pass. Energy transfer to the tracer was measured using a filter centered at 665 nm with a 10 nm bandpass. This signal was then referenced to the emission from europium peak, using a 615 nm, 10-nm bandpass filter. The “emission ratio” was calculated as the 665 nm signal divided by the 615 nm signal. Percentage of inhibition was calculated as below:
% Inhibition=100×(RatioSample−Ratio0% Inhibition)/(Ratio100% Inhibition−Ratio0% Inhibition)
For orientation: In TR-FRET formats the signal depends on donor and acceptor labels being close together.

As for `COc1cc(Nc2nc(-c3ccc4c(c3)C(=O)NCCO4)cn3ccnc23)ccc1N1CCOCC1` [Compound 2, 7-(8-((3-methoxy-4-morpholinophenyl)amino)imidazo [1,2-a]pyrazin-6-yl)-3,4-dihydrobenzo[f][1,4]oxazepin-5(2H)-one], the IC50 (as a rule, the concentration that inhibits the measured activity by half) came out at 6 nM.
As for `C[C@H](O)[C@H]1CN(c2ccc(Nc3nc(-c4cnc5c(c4)NCCO5)cn4ccnc34)cc2)CCO1` [Compound 5, (S)-1-((R)-4-(4-((6-(2,3-dihydro-1H-pyrido[2,3-b][1,4]oxazin-7-yl)imidazo[1,2-a]pyrazin-8-yl)amino)phenyl)morpholin-2-yl)ethanol], the concentration for half-maximal inhibition (IC50) was 6 nM.
Compound `COc1cc(Nc2nc(-c3ccc4c(c3)OCCN4)cn3ccnc23)ccc1N1CCN(C2COC2)CC1` [Compound 6, 6-(3,4-dihydro-2H-benzo[b][1,4]oxazin-7-yl)-N-(3-methoxy-4-(4-(oxetan-3-yl)piperazin-1-yl)phenyl)imidazo[1,2-a]pyrazin-8-amine] showed a concentration for half-maximal inhibition (IC50) of 7 nM.
`COc1cc(Nc2nc(-c3ccc4c(c3)NCCO4)cn3ccnc23)ccc1N1CC[C@@H](N)C1` [Compound 9, (R)-N-(4-(3-aminopyrrolidin-1-yl)-3-methoxyphenyl)-6-(3,4-dihydro-2H-benzo[b][1,4]oxazin-6-yl)imidazo[1,2-a]pyrazin-8-amine]: inhibition was half-maximal at 6 nM (IC50).
With `COc1cc(Nc2nc(-c3cnc4c(c3)NCCO4)cn3ccnc23)ccc1N1CCN(CC2(C)COC2)CC1` [Compound 28, 6-(2,3-dihydro-1H-pyrido[2,3-b][1,4]oxazin-7-yl)-N-(3-methoxy-4-(4-((3-methyloxetan-3-yl)methyl)piperazin-1-yl)phenyl)imidazo[1,2-a]pyrazin-8-amine], 4 nM corresponded to half-maximal inhibition (IC50).
The value for `COc1cc(Nc2nc(-c3cnc4c(c3)NCCO4)cn3ccnc23)ccc1OC1CCC1` [Compound 29, N-(4-cyclobutoxy-3-methoxyphenyl)-6-(2,3-dihydro-1H-pyrido[2,3-b][1,4]oxazin-7-yl)imidazo[1,2-a]pyrazin-8-amine] was 7 nM; that for `COc1cc(Nc2nc(-c3cnc4c(c3)NCCO4)cn3ccnc23)ccc1OC1COC1` [Compound 30, 6-(2,3-dihydro-1H-pyrido[2,3-b][1,4]oxazin-7-yl)-N-(3-methoxy-4-(oxetan-3-yloxy)phenyl)imidazo[1,2-a]pyrazin-8-amine] was 2 nM.
In the case of `CC(=O)N1CCN(c2ccc(Nc3nc(-c4cnc5c(c4)NCCO5)cn4ccnc34)cc2)CC1` [Compound 34] it was 4 nM; in that of `COc1cc(Nc2nc(-c3cnc4c(c3)NCCO4)cn3ccnc23)ccc1N(C)C` [Compound 35, N4-(6-(2,3-dihydro-1H-pyrido[2,3-b][1,4]oxazin-7-yl)imidazo[1,2-a]pyrazin-8-yl)-2-methoxy-N1,N1-dimethylbenzene-1,4-diamine], 2 nM.
The value for `CC(C)n1cc(Nc2nc(-c3cnc4c(c3)NCCO4)cn3ccnc23)cn1` [Compound 36, 6-(2,3-dihydro-1H-pyrido[2,3-b][1,4]oxazin-7-yl)-N-(1-isopropyl-1H-pyrazol-4-yl)imidazo[1,2-a]pyrazin-8-amine] was 8 nM.
In the case of `c1cn2cc(-c3cnc4c(c3)NCCO4)nc(Nc3ccc(C4CCOCC4)cc3)c2n1` [Compound 39, 6-(2,3-dihydro-1H-pyrido[2,3-b][1,4]oxazin-7-yl)-N-(4-(tetrahydro-2H-pyran-4-yl)phenyl)imidazo[1,2-a]pyrazin-8-amine], inhibition was half-maximal at 7 nM (IC50).
In the case of `COc1cc(Nc2nc(-c3cnc4c(c3)NCCO4)cn3ccnc23)ccc1-n1ccnc1` [Compound 40, N-(4-(1H-imidazol-1-yl)-3-methoxyphenyl)-6-(2,3-dihydro-1H-pyrido[2,3-b][1,4]oxazin-7-yl)imidazo[1,2-a]pyrazin-8-amine] it was 21 nM.
The value for `c1cn2cc(-c3cnc4c(c3)NCCO4)nc(Nc3ccc4c(c3)OC[C@H]3COCCN43)c2n1` [Compound 43, (R)-N-(6-(2,3-dihydro-1H-pyrido[2,3-b][1,4]oxazin-7-yl)imidazo[1,2-a]pyrazin-8-yl)-2,4,4a,5-tetrahydro-1H-benzo[b][1,4]oxazino[4,3-d][1,4]oxazin-8-amine] was 9 nM.
For `c1cn2cc(-c3cnc4c(c3)NCCO4)nc(Nc3cnn(C4CCOCC4)c3)c2n1` [Compound 44, 6-(2,3-dihydro-1H-pyrido[2,3-b][1,4]oxazin-7-yl)-N-(1-(tetrahydro-2H-pyran-4-yl)-1H-pyrazol-4-yl)imidazo[1,2-a]pyrazin-8-amine], the half-maximal inhibitory concentration (IC50) amounted to 5 nM.
The value for `COc1cc(Nc2nc(-c3cnc4c(c3)NCCO4)cn3ccnc23)ccc1N1CCC[C@](C)(O)C1` [Compound 52, (S)-1-(4-((6-(2,3-dihydro-1H-pyrido[2,3-b][1,4]oxazin-7-yl)imidazo[1,2-a]pyrazin-8-yl)amino)-2-methoxyphenyl)-3-methylpiperidin-3-ol] was 7 nM.
In the case of `CC(C)c1ncc(Nc2nc(-c3cnc4c(c3)NCCO4)cn3ccnc23)s1` [Compound 54, N-(6-(2,3-dihydro-1H-pyrido[2,3-b][1,4]oxazin-7-yl)imidazo[1,2-a]pyrazin-8-yl)-2-isopropylthiazol-5-amine] it was 4 nM; in that of `COc1cc(Nc2nc(-c3ccc4c(c3)C(=O)NCCO4)cn3ccnc23)ccc1N1CCN(C2COC2)CC1` [Compound 55, 7-(8-((3-methoxy-4-(4-(oxetan-3-yl)piperazin-1-yl)phenyl)amino)imidazo[1,2-a]pyrazin-6-yl)-3,4-dihydrobenzo[f][1,4]oxazepin-5(2H)-one], 8 nM.
In the case of `COc1cc(Nc2nc(-c3cnc4c(c3)NCCS4)cn3ccnc23)ccc1N1CCOCC1` [Compound 58, 6-(2,3-dihydro-1H-pyrido[2,3-b][1,4]thiazin-7-yl)-N-(3-methoxy-4-morpholinophenyl)imidazo[1,2-a]pyrazin-8-amine] it was 2 nM; in that of `COc1cc(Nc2nc(-c3cnc4c(c3)N(C)C(=O)CO4)cn3ccnc23)ccc1N1CCOCC1` [Compound 60, 7-(8-((3-methoxy-4-morpholinophenyl)amino)imidazo [1,2-a]pyrazin-6-yl)-1-methyl-1H-pyrido[2,3-b][1,4]oxazin-2(3H)-one], 39 nM; in that of `CN(C)C[C@@H]1CN(c2ccc(Nc3nc(-c4cnc5c(c4)NCCO5)cn4ccnc34)cc2)CCO1` [Compound 61, (R)-6-(2,3-dihydro-1H-pyrido[2,3-b][1,4]oxazin-7-yl)-N-(4-(2-((dimethylamino)methyl)morpholino)phenyl)imidazo[1,2-a]pyrazin-8-amine], 9 nM.
In turn, `CC(C)N1CCN(c2ccc(Nc3nc(-c4cnc5c(c4)NCCO5)cn4ccnc34)cc2)CC1` [Compound 62, 6-(2,3-dihydro-1H-pyrido[2,3-b][1,4]oxazin-7-yl)-N-(4-(4-isopropylpiperazin-1-yl)phenyl)imidazo[1,2-a]pyrazin-8-amine] had an IC50 of 8 nM.
Compound `c1cn2cc(-c3ccc4c(c3)CNCCO4)nc(Nc3ccc(N4CCOCC4)cc3)c2n1` [Compound 78, N-(4-morpholinophenyl)-6-(2,3,4,5-tetrahydrobenzo[f][1,4]oxazepin-7-yl)imidazo[1,2-a]pyrazin-8-amine] gave an IC50 of 18 nM.
In the case of `COc1cc(Nc2nc(-c3cnc4c(c3)NCCO4)cn3ccnc23)ccc1N1CCOC(C)(C)C1` [Compound 81, 6-(2,3-dihydro-1H-pyrido[2,3-b][1,4]oxazin-7-yl)-N-(4-(2,2-dimethylmorpholino)-3-methoxyphenyl)imidazo[1,2-a]pyrazin-8-amine], 14 nM corresponded to half-maximal inhibition (IC50).
